In one series the test system is mammary carcinoma 13762. Description: Tumour growth delay in rats carrying mammary carcinoma 13762. The following applies: for Days to reach 500 mm^3 / TGD: chemotherapy alone, ip days 8 & 18; for Days to reach 500 mm^3: tumour implanted day 0; for TGD: versus controls. Here is the method: The hepatotoxin monocrotaline and the AA carmustine (BCNU), alone or in association with DF, were tested in vivo in an experimental model which used rats carrying mammary carcinoma 13762.
Table 1. […] The tumour was implanted on day 0 and the chemotherapy was administered on day 8 and day 18.

For series [1], the system named is mouse EMT-6 mammary carcinoma cells. Put plainly: Cytotoxicity of alkylating agents with and without DF in EMT-6 cells in culture.
Another series deals with MM-1S human MM cells. The class given is in vivo. The following applies: for Tumor volume: P<0.05. The method, then: It was also tested whether DF has in vivo activity in a murine model of human multiple myeloma (MM). Sixty male SCID/NOD mice (6-8 weeks old) were irradiated (450 rads) and, 24 hrs later, injected s.c. with 5×10^6 MM-1S human MM cells. Upon formation of palpable tumors, mice were randomly assigned to 6 cohorts (10 mice each) receiving a) vehicle; b) DF (i.v. 450 mg/kg b.i.d); c) melphalan (MEL) 2.5 mg/kg i.p. once weekly; d) cyclophosphamide (CTX) 50 mg/kg i.p., on days 8, 10, 12, 20, 22 and 24; e) and f) combinations of DF (300 mg/kg i.v.) with MEL or CTX, respectively. Mice were monitored q3 days for body weight, potential toxicity, and electronic caliper-based tumor volumes.
The major endpoints for efficacy were a) tumor volume changes and b) overall survival (time-to-sacrifice, performed when tumor diameters>2 cm).

The subject of another series is MM cells. Put plainly: In vitro direct cytotoxicity against MM cells. The following applies: DF alone. The class given is cell-based.
The test system of series [2] is Lewis pulmonary carcinoma. Put plainly: Tumour growth and pulmonary metastases in mice carrying Lewis pulmonary carcinoma. The class given is in vivo. To be noted: DF added to paclitaxel with or without carboplatin. The text has this:
The mechanism underlying these effects remains to be explained, but it is possible that the anti-adhesive properties of DF are involved, given the role of cell adhesion in the mechanisms implicated in drug resistance (8, 9).

Another series relates to bovine endothelial cells. Put plainly: Cytotoxicity of alkylating agents with and without DF in bovine endothelial cells in culture. The series is classed as cell-based. To be noted: DF 50 μg/ml with alkylating agents.
Where [3] appears, read: versus cytotoxic therapy alone, data not presented.
Where [4] appears, read: monocrotaline or BCNU together with DF.

Like-named read-outs stand apart in the source and are kept apart here.

Excerpt for bovine endothelial cells: In the following study, DF was examined in combination with antiblastic cytotoxic agents in a model of mouse EMT-6 mammary carcinoma cells and in bovine endothelial cells, in cell cultures and in an experimental model in which rats carrying tumours subjected to high doses of chemotherapy were used.

Regarding `O=NN(CCCl)C(=O)NCCCl` [BCNU, carmustine], in the series on mammary carcinoma 13762, the “Days to reach 500 mm^3” value is given as 18.0 ± 2.5 days and the “TGD” value came out at 3.4 days.
With `C[C@H]1C(=O)O[C@@H]2CCN3CC=C(COC(=O)[C@](C)(O)[C@]1(C)O)[C@H]23` [Monocrotaline, monocrotaline], in the series on mammary carcinoma 13762, the “Days to reach 500 mm^3” value is 15.6 ± 1.0 days and the “TGD” value was found to be 1.0 days.
With defibrotide [DF], the “Increment in the killing of tumour cells by 4HC” value in series [1] (DF 50 μg/ml before and during, or during and after 4HC, 4HC 50-250 μmol) came out at 2 logarithmic units. Moreover, the “Effect of DF on cytotoxicity of melphalan” value in series [1] (DF before and during or during and after melphalan) is on record as “did not show any significant effect”. In addition, the “Effect of DF on cytotoxicity of carboplatin” value in series [1] (DF with carboplatin, compared with thiotepa result) is reported as “A similar result”. Further, the Tumor volume result with MM-1S human MM cells (DF 300 mg/kg i.v. with MEL or CTX versus single-agent chemotherapy) is recorded as “significantly lower tumor volumes than the respective single-agent cytotoxic chemotherapy”; in the series with MM-1S human MM cells (DF i.v. 450 mg/kg b.i.d versus control mice), “significantly lower tumor volumes than in control mice”. For the same compound, the “Tolerability (hemorrhagic complications, body weight)” value with MM-1S human MM cells (DF single agent (i.v. 450 mg/kg b.i.d) or 300 mg/kg i.v. with MEL or CTX, P>0.05) is on record as “well tolerated without hemorrhagic complications or body weight loss”. Besides, the “Overall survival (time-to-sacrifice), Kaplan-Meier” value with MM-1S human MM cells (DF single agent or with MEL or CTX, versus vehicle or MEL- or CTX-treated groups, P<0.001 log-rank) is “statistically significant prolongation of overall survival”. Also, the “Direct in vitro cytotoxic effect” value with MM cells was “have not shown a significant direct in vitro cytotoxic effect”. Besides, the Toxicity result in series [2] was “without showing an obvious increase in toxicity”. Further, the “Number of pulmonary metastases” value in series [2] (setting [3]) is recorded as “reduction”. For the same compound, the “Tumour growth (TGD)” value in series [2] (setting [3]) was “reduction in tumour growth”. Moreover, the “Tumour growth delay (TGD), in words” value is on record as “significant tumour growth delay” in the series with mammary carcinoma 13762 (DF alone versus control, p<0.05, repeat study); “particularly significant” with mammary carcinoma 13762 (DF associated with CTX and BCNU, p<0.04, greater than each agent alone, repeat study); “significant tumour growth delay” with mammary carcinoma 13762 (setting [4]). Also, the “Additional toxicity in the animals” value with mammary carcinoma 13762 (setting [4]) is recorded as “no additional toxicity”. The “Increase in cytotoxicity of AAs in association with DF” value with bovine endothelial cells is recorded as “no increase in cytotoxicity”.
